From PMC6348443 (Journal of Medicinal Chemistry, 2018) come the findings set out here.

The structures appear in SMILES notation. Where a name gives a salt, the structure may show the parent alone. Read-outs that look alike come from different tables or passages of the source.

For orientation: Ki means the dissociation constant of the complex between target and ligand, obtained from inhibition or displacement. As a reminder, the EC50 is the concentration that produces a half-maximal response.

Experiment [1] deals with T1, MOR (Homo sapiens, UniProt P35372).
T1 construct: host or cells: CHO (CHO-hMOR)
T1 sequence (P35372 whole entry): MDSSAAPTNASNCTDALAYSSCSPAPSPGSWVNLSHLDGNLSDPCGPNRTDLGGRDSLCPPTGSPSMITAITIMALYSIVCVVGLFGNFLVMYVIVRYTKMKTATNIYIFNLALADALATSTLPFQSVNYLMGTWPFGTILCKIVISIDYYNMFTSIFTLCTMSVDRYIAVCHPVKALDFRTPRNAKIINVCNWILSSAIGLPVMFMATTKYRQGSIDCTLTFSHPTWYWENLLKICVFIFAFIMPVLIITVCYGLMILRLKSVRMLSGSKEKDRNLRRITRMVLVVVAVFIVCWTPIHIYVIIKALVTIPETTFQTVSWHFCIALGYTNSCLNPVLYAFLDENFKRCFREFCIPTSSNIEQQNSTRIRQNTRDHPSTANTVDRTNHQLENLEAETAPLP
The experiment is described as follows: competition radioligand binding, CHO cell membranes expressing human MOR, [3H]DAMGO.

Experiment [2] has as its target T2, DOR (Homo sapiens, UniProt P41143).
T2 construct: host or cells: CHO (CHO-hDOR)
The experiment is described as follows: competition radioligand binding, CHO cell membranes expressing human DOR, [3H]diprenorphine.

Experiment [3] has as its target T3, MOR (Rattus norvegicus, UniProt P33535).
T3 construct: Membranes were prepared from Sprague-Dawley rat brains or guinea-pig brains according to the described procedures; tissue Labortierkunde und Laborgenetik, Medizinische Universität Wien; host or cells: Sprague-Dawley rat brain without cerebella
The experiment is described as follows: competition radioligand binding, rat brain membranes, [3H]DAMGO. As to conditions: for Ki: rat brain membranes, read-out: opioid receptor binding Ki MOR.

Experiment [4] concerns the target T1, MOR. Put plainly: [35S]GTPγS binding assay, CHO-hMOR membranes. The format is biochemical. To be noted: for EC50: [35S]GTPγS, CHO human MOR membranes, read-out: MOR EC50; for Emax: relative to reference full agonist DAMGO, read-out: MOR % stim. For orientation: GTPγS resists hydrolysis and so accumulates on activated G proteins.
Experiment [5] has as its target T4, DOR (Rattus norvegicus, UniProt P33533).
T4 construct: Membranes were prepared from Sprague-Dawley rat brains or guinea-pig brains according to the described procedures; tissue Labortierkunde und Laborgenetik, Medizinische Universität Wien; host or cells: Sprague-Dawley rat brain without cerebella
Put plainly: competition radioligand binding, rat brain membranes, [3H][Ile5,6]deltorphin II. To be noted: for Ki: rat brain membranes, read-out: opioid receptor binding Ki DOR.

Experiment [6] concerns the target T2, DOR. The experiment is described as follows: [35S]GTPγS binding assay, CHO-hDOR membranes. To be noted: for EC50: [35S]GTPγS, CHO human DOR membranes; for Emax: relative to reference full agonist DPDPE, read-out: DOR % stim. It is filed as biochemical.

T4 sequence (P33533 whole entry): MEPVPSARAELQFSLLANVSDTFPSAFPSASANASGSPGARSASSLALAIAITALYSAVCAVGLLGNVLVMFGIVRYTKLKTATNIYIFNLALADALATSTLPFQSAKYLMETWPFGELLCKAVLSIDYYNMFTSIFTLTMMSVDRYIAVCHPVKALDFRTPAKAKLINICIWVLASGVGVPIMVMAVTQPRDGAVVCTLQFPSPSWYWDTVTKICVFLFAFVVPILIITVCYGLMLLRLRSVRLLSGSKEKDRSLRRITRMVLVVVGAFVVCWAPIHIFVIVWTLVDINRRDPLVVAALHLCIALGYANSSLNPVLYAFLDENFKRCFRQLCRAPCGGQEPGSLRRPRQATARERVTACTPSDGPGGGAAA
T2 sequence (P41143 whole entry): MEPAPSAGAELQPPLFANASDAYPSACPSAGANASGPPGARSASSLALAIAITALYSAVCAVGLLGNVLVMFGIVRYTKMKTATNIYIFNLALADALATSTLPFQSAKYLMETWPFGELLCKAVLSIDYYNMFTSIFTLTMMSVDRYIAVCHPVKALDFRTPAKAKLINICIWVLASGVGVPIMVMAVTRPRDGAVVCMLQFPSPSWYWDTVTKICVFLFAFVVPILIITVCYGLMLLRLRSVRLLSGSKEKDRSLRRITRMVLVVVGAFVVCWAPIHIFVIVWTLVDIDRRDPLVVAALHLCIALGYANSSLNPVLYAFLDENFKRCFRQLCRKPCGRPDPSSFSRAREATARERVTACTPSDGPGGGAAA
T3 sequence (P33535 whole entry): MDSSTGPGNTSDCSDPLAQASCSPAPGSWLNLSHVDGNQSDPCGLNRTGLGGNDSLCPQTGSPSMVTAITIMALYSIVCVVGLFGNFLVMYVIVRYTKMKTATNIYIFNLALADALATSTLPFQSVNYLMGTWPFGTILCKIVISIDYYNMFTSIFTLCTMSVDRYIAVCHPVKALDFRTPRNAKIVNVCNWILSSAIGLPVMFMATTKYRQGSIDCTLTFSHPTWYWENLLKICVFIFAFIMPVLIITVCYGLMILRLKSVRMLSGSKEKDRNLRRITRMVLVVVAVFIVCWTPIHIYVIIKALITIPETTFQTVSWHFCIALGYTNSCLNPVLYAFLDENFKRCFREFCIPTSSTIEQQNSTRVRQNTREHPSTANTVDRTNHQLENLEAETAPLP

As for `CC[C@H](N[C@H]1CC[C@@]2(OC)[C@H]3Cc4ccc(O)c5c4[C@@]2(CCN3C)[C@H]1O5)C(=O)O` [Compound 19a, (2S)-2-[(4,5α-Epoxy-3-hydroxy-14β-methoxy-17-methylmorphinan-6α-yl)amino]-2-ethylacetic Acid Dihydrochloride], the Ki at MOR [1] stood at 0.95 ± 0.13 nM; at DOR [2], 38 ± 15.4 nM; on MOR [3], 0.76 ± 0.19 nM; at DOR [5], 37.5 ± 3.4 nM. For the same compound, the “Ki ratio MOR/DOR/KOR” value at MOR [3] (from Ki in rat (MOR, DOR) and guinea-pig (KOR) brain membranes) is on record as 1/49/189. The DOR/MOR selectivity ratio on MOR [3] (from Ki in rat brain, for 1 from Ki of ref 44) turned out to be 49. Besides, the values for the EC50 at MOR [4] and on DOR [6] were 5.12 ± 0.09 nM and 98.2 ± 5.1 nM, respectively. Moreover, the Emax was determined as 88 ± 2% on MOR [4] and 104 ± 9% on DOR [6]. The “decreased DOR affinity vs 6β analogue” value on DOR [5] (rat brain, 18a vs 18b, 19a vs 19b) is reported as 29 times.
With `CO[C@@]12CC[C@H](N[C@H](C(=O)N[C@@H](Cc3ccc(O)cc3)C(=O)O)C(C)C)[C@@H]3Oc4c(O)ccc5c4[C@@]31CCN(C)[C@@H]2C5` [Compound 22a, (2S)-2-[[(4,5α-Epoxy-3-hydroxy-14β-methoxy-17-methylmorphinan-6α-yl)amino]-(2S)-3-methylbutyrylamino]-3-(4-hydroxyphenyl)propionic Acid], the Ki at MOR [1] (CHO cell membranes expressing human MOR, read-out: Ki MOR) was determined as 1.29 ± 0.13 nM; at DOR [2] (CHO cell membranes expressing human DOR, read-out: Ki DOR), 1.46 ± 0.59 nM; on MOR [3] it was 0.82 ± 0.13 nM; at DOR [5], 1.19 ± 0.42 nM. Also, on MOR [3] (rat brain, 17b vs 4b, 16a/b vs 7a/b, 22a/b vs 7a, 7b and 9b, 14a vs 14b), the “increase in MOR binding affinity vs comparator” value lay in the range of 4 to 7 times. Besides, the figures for the EC50 at MOR [4] and on DOR [6] were 0.89 ± 0.04 nM and 1.16 ± 0.6 nM, respectively. Further, the “functional profile at MOR (full/partial agonist)” value on MOR [4] (full agonist ≥85% of the response to DAMGO) is reported as “partial agonists”. Further, the Emax on MOR [4] is approximately 80%; at DOR [6] it was 88 ± 5%. Further, at DOR [6] (full agonist ≥85% of the response to DPDPE), the “functional profile at DOR (full/partial agonist)” value is on record as “full agonists”.
